According to the supplement of paper PMC10307832:

Assays:
Assay in all cases: relative viability (nuclei count vs DMSO), 5 days (fraction); higher = more cells survive
Tipifarnib + Linsitinib = compound: Cn1cncc1[C@@](N)(c1ccc(Cl)cc1)c1ccc2c(c1)c(-c1cccc(Cl)c1)cc(=O)n2C [Tipifarnib] + C[C@]1(O)C[C@@H](c2nc(-c3ccc4ccc(-c5ccccc5)nc4c3)c3c(N)nccn32)C1 [Linsitinib] (partner 1 µM)
In short: (§1)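 Lung cancer cell lines, seeded in 1536-well plates, were treated the following day by pin tool with a single drug or with five library-drug doses (not always all listed) in √10 steps on top of a fixed anchor-drug dose. Cells were fixed and nuclei stained in one step after 5 days, and nuclei were counted. Relative viability is the nuclei count for treated wells divided by that for vehicle wells, reported as medians of duplicate plates.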

Tipifarnib + Pemetrexed = compound: Cn1cncc1[C@@](N)(c1ccc(Cl)cc1)c1ccc2c(c1)c(-c1cccc(Cl)c1)cc(=O)n2C [Tipifarnib] + Nc1nc2[nH]cc(CCc3ccc(C(=O)N[C@@H](CCC(=O)O)C(=O)O)cc3)c2c(=O)[nH]1 [Pemetrexed] (partner 0.2 µM)
In short: as §1

Tipifarnib + Vorinostat = compound: Cn1cncc1[C@@](N)(c1ccc(Cl)cc1)c1ccc2c(c1)c(-c1cccc(Cl)c1)cc(=O)n2C [Tipifarnib] + O=C(CCCCCCC(=O)Nc1ccccc1)NO [Vorinostat] (partner 1 µM)
In short: as §1

Tipifarnib + Olaparib = compound: Cn1cncc1[C@@](N)(c1ccc(Cl)cc1)c1ccc2c(c1)c(-c1cccc(Cl)c1)cc(=O)n2C [Tipifarnib] + O=C(c1cc(Cc2n[nH]c(=O)c3ccccc23)ccc1F)N1CCN(C(=O)C2CC2)CC1 [Olaparib] (partner 8 µM)
In short: as §1

Cell Line | relative viability (Tipifarnib + Linsitinib; first compound 0.01 µM) | relative viability (Tipifarnib + Linsitinib; first compound 0.03162 µM) | relative viability (Tipifarnib + Linsitinib; first compound 0.1 µM) | relative viability (Tipifarnib + Linsitinib; first compound 0.3162 µM) | relative viability (Tipifarnib + Linsitinib; first compound 1 µM) | relative viability (Tipifarnib + Pemetrexed; first compound 0.01 µM) | relative viability (Tipifarnib + Pemetrexed; first compound 0.03162 µM) | relative viability (Tipifarnib + Pemetrexed; first compound 0.1 µM) | relative viability (Tipifarnib + Pemetrexed; first compound 0.3162 µM) | relative viability (Tipifarnib + Pemetrexed; first compound 1 µM) | relative viability (Tipifarnib + Vorinostat; first compound 0.01 µM) | relative viability (Tipifarnib + Vorinostat; first compound 0.03162 µM) | relative viability (Tipifarnib + Vorinostat; first compound 0.1 µM) | relative viability (Tipifarnib + Vorinostat; first compound 0.3162 µM) | relative viability (Tipifarnib + Vorinostat; first compound 1 µM) | relative viability (Tipifarnib + Olaparib; first compound 0.01 µM) | relative viability (Tipifarnib + Olaparib; first compound 0.03162 µM) | relative viability (Tipifarnib + Olaparib; first compound 0.1 µM) | relative viability (Tipifarnib + Olaparib; first compound 0.3162 µM) | relative viability (Tipifarnib + Olaparib; first compound 1 µM)
201T | 1.04 | 1.04 | 0.989 | 0.949 | 1.07 | 0.363 | 0.338 | 0.371 | 0.317 | 0.346 | 1.04 | 0.965 | 0.908 | 0.839 | 0.583 | 0.851 | 0.86 | 0.83 | 0.733 | 0.793
A-427 | 1.18 | 1.11 | 1.05 | 1.09 | 1.09 | 0.998 | 1.06 | 0.82 | 0.979 | 0.739 | 0.839 | 0.849 | 0.621 | 0.8 | 0.655 | 0.834 | 0.696 | 0.697 | 0.694 | 0.727
ABC-1 | 0.827 |  | 0.76 | 0.665 | 0.554 |  |  |  |  |  | 1.16 | 0.481 | 0.781 | 0.593 | 0.613 | 0.7 | 0.776 | 0.819 | 0.986 | 0.912
BEN | 1.03 | 1.18 | 0.835 | 0.696 | 0.716 | 0.802 | 0.81 | 0.776 | 0.737 | 0.598 | 0.597 | 0.488 | 0.538 | 0.464 | 0.422 | 1.26 | 1.11 | 0.954 | 0.96 | 0.954
CAL-12T | 0.812 | 0.606 | 0.616 | 0.387 | 0.403 | 1.2 | 1.09 | 0.741 | 0.472 | 0.62 | 0.701 | 0.519 | 0.454 | 0.324 | 0.29 | 0.717 | 0.587 | 0.527 | 0.455 | 0.465
COR-L23 | 1.01 | 0.628 | 0.614 | 0.374 | 0.409 | 0.215 | 0.205 | 0.195 | 0.206 | 0.188 | 0.541 | 0.34 | 0.316 | 0.221 | 0.252 | 0.403 | 0.289 | 0.335 | 0.255 | 0.258
Calu-6 | 0.941 | 0.679 | 0.645 | 0.515 | 0.444 |  |  |  |  |  |  |  |  |  |  | 0.532 | 0.498 | 0.514 | 0.502 | 0.466
ChaGo-K-1 |  |  |  |  |  | 0.262 | 0.274 | 0.265 | 0.27 | 0.272 | 0.772 | 0.706 | 0.752 | 0.691 | 0.297 | 0.455 | 0.406 | 0.459 | 0.419 | 0.373
EBC-1 | 0.854 | 0.288 | 0.332 | 0.265 | 0.212 |  |  |  |  |  |  |  |  |  |  | 0.648 | 0.411 | 0.332 | 0.228 | 0.229
IA-LM | 0.329 | 0.285 | 0.332 | 0.288 | 0.189 |  |  |  |  |  |  | 0.539 | 0.277 | 0.238 | 0.249 | 0.494 | 0.504 | 0.485 | 0.256 | 0.404
NCI-H727 | 0.285 | 0.334 | 0.321 | 0.3 | 0.259 |  |  |  |  |  | 1.15 | 1.22 | 1.18 | 1.32 | 0.91 | 0.702 | 0.685 | 0.866 | 0.802 | 0.901
NCI-H1299 | 1.06 | 0.886 | 0.906 | 0.803 | 0.635 |  |  |  |  |  |  |  |  |  |  | 0.984 | 0.932 | 0.973 | 0.791 | 0.783
NCI-H1563 | 1.13 | 1.13 | 1.13 | 1.03 | 1.14 | 0.731 | 0.799 | 0.777 | 0.655 | 0.665 |  |  |  |  |  |  |  |  |  | 
NCI-H1648 |  |  |  |  |  | 0.6 | 0.746 | 0.842 | 0.636 | 0.305 | 0.356 | 0.394 | 0.419 | 0.384 | 0.372 | 0.868 | 0.757 | 0.572 | 0.533 | 0.456
NCI-H1650 |  |  |  |  |  | 0.427 | 0.379 | 0.329 | 0.271 | 0.278 | 0.415 | 0.399 | 0.306 | 0.253 | 0.212 | 0.747 | 0.505 | 0.358 | 0.321 | 0.416
NCI-H1703 | 0.84 | 0.323 | 0.145 | 0.274 | 0.373 |  |  |  |  |  |  |  |  |  |  | 0.427 | 0.266 | 0.16 | 0.176 | 0.17
NCI-H1792 | 0.436 | 0.453 | 0.257 | 0.207 | 0.233 | 0.681 | 0.332 | 0.416 | 0.157 | 0.118 |  |  |  |  |  | 0.301 | 0.279 | 0.208 | 0.169 | 0.122
NCI-H2170 |  |  |  |  |  | 0.257 | 0.291 | 0.269 | 0.243 | 0.242 | 0.831 | 0.774 | 0.697 | 0.637 | 0.335 | 0.687 | 0.582 | 0.536 | 0.47 | 0.474
NCI-H2342 |  |  |  |  |  | 0.906 | 0.776 | 0.71 | 0.64 | 0.509 | 0.847 | 0.746 | 0.597 | 0.73 | 0.516 | 0.536 | 0.463 | 0.425 | 0.371 | 0.396
